Assay results reported in patent US8372971B2, “Heterocyclic compounds and methods of use” (TargeGen, Inc., priority 2004, dated 2013).
Structures can show the parent of a compound that is named as a salt. Where two headings read alike, the source gives them in different places.

What was measured:
Type in all cases: cell-based, human
[1] = system: p-MEK and p-ERK levels in HUVECs; assay: Western Blot, inhibition of MAPK pathway in cellular assay (Example 27); conditions: at 5 uM, 50 ng/ml VEGF or FGF
Experimental: (§1) Western Blot: Early passage primary human umbilical vein endothelial cells (HUVECs) were maintained in EGM-2 containing SingleQuots (Cambrex, East Rutherford, N.J.), 10% FBS, 10 mM HEPES, and 50 μg/ml gentamicin. Prior to treatment of the cells with inhibitor, the HUVECs were starved for 18 h by replacing serum-containing complete media with scrum-free and SingleQuot-free media. The starved cells were pre-treated with inhibitors for 60 min at various concentrations (0-20 μM). Next the HUVECs were treated with 50 ng/ml VEGF or FGF (Peprotech, Rocky Hill, N.J.) for 6 min and the cells were immediately washed with ice-cold PBS. Cells were lysed with ice-cold RIPA buffer containing 100 mM Tris pH 7.5, 150 mM NaCl, 1 mM EDTA, 1% deoxycholate, 1% Triton X-100, 0.1% SDS, 2 mM PMSF, one Complete-Mini protease inhibitor tablet (Roche, Indianapolis, Ind.; 1 tablet/7 ml of lysis buffer) and the phophatase inhibitors NaF (500 mM) and orthovanadate (1 mM). The cells were scraped and lysates transferred and centrifuged at 15,000 g for 10 min. Supernatants were transferred to new tubes and protein concentration was quantitated using the BCA protein reagent (Pierce, Rockford, Ill.). Cell lysates containing 20 μg of total protein were separated by 10% SDS-PAGE, transferred to nitrocellulose, and blocked in 5% milk in TBST. Anti phospho-ERK Thr 202/Tyr 204 (Cell Signaling, Beverly, Mass.), anti-phospho-MEK Ser217/221 (Cell Signaling), and c-Raf (BD Biosciences Pharmingen, San Diego, Calif.) used as primary antibodies were detected with horseradish peroxidase-conjugated goat anti-mouse or rabbit secondary antibodies and bands were visualized using the SuperSignal West Pico chemiluminescence reagent system (Pierce) and Kodak X-ray film (Rochester, N.Y.).

[2] = system: p-MEK and p-ERK levels in HUVECs; assay: Western Blot, inhibition of MAPK pathway in cellular assay (Example 105); conditions: 50 ng/ml VEGF or FGF
Experimental: as §1, with “Some compounds described by the general structure (B) were tested for inhibition of MAPK pathway in cellular assay. Western” for “Western”, “serum-free” for “scrum-free”, “main.” for “min.”

HUVECs = assay: XTT cell viability assay (Example 106); conditions: 72 hours, read-out: Inhibition of HUVEC cell prolifiration (IC50)
Experimental: Some compounds described by the general structure (B) were tested for cell viability. XTT assay: HUVECs were seeded at 10,000 cells/well of a tissue culture treated 96-well plate treated with collagen type I and grown overnight in the complete EGM-2 media as described above. The following morning, the inhibitors were serial diluted with DMSO and added to the cells with a final DMSO concentration of 1%. After 72 hours cell viability was measured with an XTT assay (Sigma, St. Louis, Mo.). The cells were also photographed to compare morphological differences to the XTT trends observed. Determination of the IC50 values was performed with quantitative software (Prism software package, GraphPad Software, San Diego Calif.).

Row | SMILES | Western Blot ([2]; at 5 uM) | IC50 (HUVECs; Homo sapiens, HUVEC) | further results
1 | CNC(=O)c1cc(Oc2ccc3nc(NC(=O)c4cc(C(F)(F)F)ccc4Cl)nnc3c2)ccn1 [4-[2-chloro-3-trifluoromethyl-benzoylamino)-benzo[1,2,4]triazin-7-yloxy]-pyridine-2-carboxylic acid methyl amide trifluoroacetate salt] |  |  | Western Blot [1]: not active at 5 uM
2 | CNC(=O)c1cc(Oc2ccc3nc(NS(=O)(=O)c4cc(C(F)(F)F)ccc4Cl)nnc3c2)ccn1 [4-[2-chloro-5-(trifluoromethyl-benzenesulfonylamino)-benzo[1,2,4]triazin-7-yloxy]-pyridine-2-carboxylic acid methyl amide trifluoroacetate salt] |  |  | Western Blot [1]: not active at 5 uM
3 | O=C(Nc1ccc(OC(F)(F)F)cc1)Nc1nnc2cc(Oc3ccnc(C(=O)NCCN4CCOCC4)c3)ccc2n1 [4-{3-[3-(4-Trifluoromethoxy-phenyl)-ureido]-benzo[1,2,4]triazin-7-yloxy}-pyridine-2-carboxylic acid (2-morpholin-4-yl-ethyl)-amide] |  |  | Western Blot [1]: not active at 5 uM
4 | FC(F)(F)c1cc(-c2nnc(Nc3ccc(Oc4cncnc4)cc3)[nH]2)ccc1Cl [5-[4-chloro-3-(trifluoromethyl)phenyl]-N-[4-(pyrimidin-5-yloxy)phenyl]-4H-1,2,4-triazol-3-anine trifluoroacetate salt] | active at 5 uM | > 10 µM | 
5 | Nc1cc(Oc2ccc(-c3nnc(Nc4cccc(Cl)c4)o3)cc2)nc(N)n1 [6-(4-{5-[(3-chlorophenyl)amino]-1,3,4-oxadiazol-2-yl}phenoxy) pyrimidine-2,4-diamine] | active at 5 uM | ~20 µM | 
6 | Nc1cc(Oc2ccc(-c3nnc(Nc4ccc(Cl)cc4)o3)cc2)nc(N)n1 [6-(4-{5-[(4-chlorophenyl)amino]-1,3,4-oxadiazol-2-yl}phenoxy) pyrimidine-2,4-diamine] | active at 5 uM | 2.6 µM | 
7 | Nc1cc(Oc2ccc(-c3nnc(Nc4cccc(C(F)(F)F)c4)o3)cc2)nc(N)n1 [6-[4-(5-{[3-(trifluoromethyl)phenyl]amino}-1,3,4-oxadiazol-2-yl)phenoxy}pyrimidine-2,4-diamine] | active at 5 uM | > 10 µM | 
8 | Nc1cc(Oc2ccc(-c3nnc(Nc4ccc(Cl)c(C(F)(F)F)c4)o3)cc2)nc(N)n1 [6-[4-(5-{[4-Chloro-3-trifluoromethyl-phenyl]amino}-1,3,4-oxadiazol-2-yl)-phenoxy]-pyrimidine-2,4-diamine] | active at 5 uM | 1.57 µM | 
9 | Nc1cc(Oc2ccc(Nc3nnc(-c4ccc(OC(F)(F)F)cc4)[nH]3)cc2)nc(N)n1 [6-[4-({5-[4-(trifluoromethoxy)-phenyl-4H-1,2,4-triazol-3-yl}amino)phenoxy]pyrimidine-2,4-diamine] |  |  | Western Blot ([2]; concentration not given): not active; IC50 (HUVECs): 6.58 µM
10 | Nc1cc(Oc2ccc(Nc3nnc(-c4ccc(Cl)c(C(F)(F)F)c4)[nH]3)cc2)nc(N)n1 [6-[4-({5-[4-chloro-3-(trifluoromethyl)phenyl-4H-1,2,4-triazol-3-yl}amino)phenoxy]pyrimidine-2,4-diamine trifluoroacetate salt] | active at 5 uM | 9.57 µM | 
11 | Nc1ccc(Oc2ccc(Nc3nnc(-c4ccc(Cl)c(C(F)(F)F)c4)[nH]3)cc2)nn1 [6-[4-({5-[4-chloro-3-(trifluoromethyl)phenyl]-4H-1,2,4-triazol-3-yl}amino)phenoxy]pyridazin-3-amine trifluoroacetate salt] | active at 5 uM | > 40 µM | 
12 | Nc1cc(Oc2cccc(-c3nnc(Nc4ccc(Cl)c(C(F)(F)F)c4)[nH]3)c2)nc(N)n1 [6-{3-[5-(4-chloro-3-trifluoromethyl-phenylamino)-4H-[1,2,4]triazol-3-yl]-phenoxy}-pyrimidine-2,4-diamine trifluoroacetic acid salt] | active at 5 uM | 0.404 µM | 
13 | Nc1cc(Oc2ccc(-c3nnc(Nc4ccc(Cl)c(C(F)(F)F)c4)[nH]3)cc2)nc(N)n1 [6-{4-[5-(4-chloro-3-trifluoromethyl-phenylamino)-4H-[1,2,4]-triazol-3-yl]-phenoxy}-pyrimidine-2,4-diamine] | active at 5 uM | 0.089 µM | 
14 | FC(F)(F)c1cc(Nc2nnc(-c3cccc(Oc4ccncc4)c3)[nH]2)ccc1Cl [(4-chloro-3-trifluoromethyl-phenyl)-{5-[3-(pyridin-4-yloxy)-phenyl]-4H-[1,2,4]triazol-3-yl}-amine trifluoroacetic acid salt] | active at 5 uM | 1.79 µM | 
15 | FC(F)(F)c1cc(Nc2nnc(-c3ccc(Oc4cccnc4)cc3)[nH]2)ccc1Cl [(4-chloro-3-trifluoromethyl-phenyl)-{5-[4-(pyridin-3-yloxy)-phenyl]-4H-[1,2,4]triazol-3-yl}-amine] | active at 5 uM | 1.81 µM | 
16 | FC(F)(F)c1cc(Nc2nnc(-c3ccc(Oc4cccnc4)cc3)o2)ccc1Cl [N-[4-chloro-3-(trifluoromethyl)phenyl]-5-[4-(pyridin-3-yloxy)phenyl]-1,3,4-oxadiazol-2-amine trifluoroacetate salt] | active at 5 uM | 1.72 µM | 
17 | FC(F)(F)c1cc(Nc2nnc(-c3ccc(Oc4ccncc4)cc3)o2)ccc1Cl [N-[4-chloro-3-(trifluoromethyl)phenyl]-5-[4-(pyridin-4-yloxy)phenyl]-1,3,4-oxadiazol-2-amine trifluoroacetate salt] | active at 5 uM | 8.6 µM | 
18 | FC(F)(F)c1cc(Nc2nnc(-c3ccc(Oc4cncnc4)cc3)o2)ccc1Cl [N-[4-chloro-3-(trifluoromethyl)phenyl]-5-[4-(pyrimidin-5-yloxy)phenyl]-1,3,4-oxadiazol-2-amine trifluoroacetate salt] | active at 5 uM | 9.65 µM | 
19 | O=C(Nc1nnc(-c2ccc(Oc3cccnc3)cc2)o1)c1ccccc1OC(F)(F)F [N-{5-[4-(pyridin-3-yloxy)phenyl]-1,3,4-oxadiazol-2-yl}-2-(trifluoromethoxy)-benzamide] |  | ~20 µM | Western Blot ([2]; at 10 uM): not active at 10 uM
20 | O=C(Nc1nnc(-c2ccc(Oc3cccnc3)cc2)o1)c1cccc(OC(F)(F)F)c1 [N-{5-[4-(pyridin-3-yloxy)phenyl]-1,3,4-oxadiazol-2-yl}-3-(trifluoromethoxy)-benzamide] |  | > 40 µM | Western Blot ([2]; at 10 uM): not active at 10 uM
21 | O=C(Nc1nnc(-c2ccc(Oc3cccnc3)cc2)o1)c1cccc(C(F)(F)F)c1 [N-{5-[4-(pyridin-3-yloxy)phenyl]-1,3,4-oxadiazol-2-yl}-3-(trifluoromethyl)benzamide] |  | > 40 µM | Western Blot ([2]; at 10 uM): active at 10 uM
22 | O=C(Nc1nnc(-c2ccc(Oc3cccnc3)cc2)o1)c1ccc(OC(F)(F)F)cc1 [N-{5-[4-(pyridine-3-yloxy)phenyl]-1,3,4-oxadiazol-2-yl}-4-(trifluoromethoxy)benzamide] |  | > 40 µM | Western Blot ([2]; at 10 uM): not active at 10 uM
